Consider one compound from article PMC10816276 (International Journal of Molecular Sciences, 2024).

Structures are written as SMILES. In brackets after ≈: the same amount, converted by molar mass. Several values for one entry are separate records, joined by “and”; a condition that tells them apart may be missing. Equal values may be shown once. Entries after “also recorded” stand apart in the source; their conditions may differ.

Series [1] deals with T1, Mushroom tyrosinase (mTyr) (Agaricus bisporus, UniProt C7FF04).
T1 construct: purchased Sigma-Aldrich
T1 sequence (C7FF04 1-392): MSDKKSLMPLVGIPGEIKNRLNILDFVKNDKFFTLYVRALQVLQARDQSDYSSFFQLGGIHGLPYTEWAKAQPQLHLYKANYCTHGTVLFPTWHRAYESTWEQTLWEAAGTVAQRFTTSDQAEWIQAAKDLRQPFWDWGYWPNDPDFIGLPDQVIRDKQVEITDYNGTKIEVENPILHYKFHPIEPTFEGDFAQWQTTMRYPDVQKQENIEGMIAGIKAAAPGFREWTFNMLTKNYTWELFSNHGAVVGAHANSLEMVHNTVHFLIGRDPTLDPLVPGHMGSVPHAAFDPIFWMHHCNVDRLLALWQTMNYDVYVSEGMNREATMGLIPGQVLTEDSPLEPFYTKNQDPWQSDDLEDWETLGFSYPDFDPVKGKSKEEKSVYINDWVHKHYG
Nature of the series: HPLC analysis of oxidation of L-DOPA catalyzed by mTyr. Format: biochemical. Particulars: 2 μg·mL^−1 inhibitor, 0.5 mM L-DOPA, 31.25 U·mL^−1 mTyr, 30 °C, 0-30 min. Here is the method:
The inhibitory effect of 6′-O-caffeoylarbutin on the oxidation of L-DOPA catalyzed by mTyr was studied using Agilent 1200 series HPLC analysis (Palo Alto, CA, USA), with minor modifications to the previous procedure. The experiment was conducted with 0.5 mM L-DOPA as a diphenolase substrate for 31.25 U·mL^−1 mTyr in the absence of an inhibitor. Subsequently, 2 μg·mL^−1 of 6′-O-caffeoylarbutin was added, and the reaction mixture was incubated for 0, 15, and 30 min at 30 °C. Samples (10 μL) were injected after filtration onto the HPLC system equipped with a Capcell pak C18 column (250 × 4.6 mm, 5 μm, Shiseido, Tokyo, Japan) operating at a flow rate of 1.0 mL·min^−1. The column temperature maintained at 30 °C and the detection wavelength was set at 280 nm. The mobile phase was consisted of water (A) and methanol (B), and a gradient elution employed with the following linear gradient for solvent B: 5% (0 min), 20% (10 min), 50% (20 min), 80% (25 min), and 100% (35 min).

Series [2] has as its target T1, Mushroom tyrosinase (mTyr). Nature of the series: mTyr inhibition kinetics (Lineweaver-Burk). Format: biochemical. The method, then:
The mTyr inhibition kinetics of 6′-O-caffeoylarbutin were studied using a method similar to the previously reported procedure for determining the inhibitory activity of 6′-O-caffeoylarbutin on mTyr.
I. Enzyme inhibition mechanism study. For the investigation of the enzyme inhibition mechanism, L-DOPA was used at a final concentration of 0.5 mmol·L^−1, and the mTyr was set at final concentrations of 8.1, 32.5, and 65.0 U·mL^−1. The rate of change of optical density (OD) at 490 nm was measured for various concentrations of 6′-O-caffeoylarbutin (ranging from 10 to 100 μM). A graph was plotted to depict the relationship between the rate of change of OD values and the mTyr concentration under the influence of different concentrations of 6′-O-caffeoylarbutin.
II. Enzyme inhibition type study. To determine the enzyme inhibition type, L-DOPA was used with final concentrations of 0.2, 0.5, 0.6, and 0.8 mmol·L^−1, while mTyr was used at a final concentration of 31.25 U·mL^−1. The rate of change of OD at 490 nm was measured for various concentrations of 6′-O-caffeoylarbutin (ranging from 0 to 100 μM). A reciprocal plot was generated using the rate of change of OD values and L-DOPA concentration. The inhibition constants were obtained based on the inhibition type of 6′-O-caffeoylarbutin on mTyr using quadratic plotting of the 6′-O-caffeoylarbutin concentration and the slope and vertical intercept of the line in the Lineweaver_Burk double reciprocal plot and Dixon plot.

For series [3], the system named is zebrafish. Further details: method as in PMID 24498931. Conditions: live zebrafish model; cited from earlier work.
For series [4], the system named is apple juice. Put plainly: Browning inhibitory effect on apple juice. Conditions: absorbance at 420 nm, compared to apple juice blank control. Further details: species or system Zhaotong Red Fuji apples. The method, then:
To investigate the anti-browning effect of 6′-O-caffeoylarbutin, apple juice was used following a modified method based on the literature. Zhaotong Red Fuji apples were carefully chosen to ensure uniform shape, color, size, and maturity, free from any physical damage. After peeling, the apples were sliced into 10 g portions. These apple pieces were then immersed in solutions containing different concentrations of 6′-O-caffeoylarbutin for 10 min, followed by homogenization. The homogenized samples were subsequently subjected to centrifugation at 8000 rpm for 5 min at 4 °C, and the resulting supernatant (3 mL) was collected. Simultaneously, a blank control was prepared by extracting apple juice without the addition of any anti-browning agent. The absorbance of the samples at 420 nm was measured using a UV_vis spectrophotometer.

The subject of series [5] is human immortalized keratinocyte (HaCaT) non-tumor cells. Nature of the series: CCK-8 cell proliferation and cytotoxicity assay, HaCaT. Format: cell-based. The method, then:
(§1) I. Cell lines and cell culture. Human melanoma A375 tumor cells and human immortalized keratinocyte (HaCaT) non-tumor cells were obtained from Nanjing Pusheng Biomedical Technology Co., Ltd. (Nanjing, China). The cells (A375/HaCaT) were cultured in Dulbecco’s modified Eagle’s medium (DMEM, Gibco, New York, NY, USA) supplemented with 10% (v/v) fetal bovine serum (FBS, Gibco, New York, NY, USA), and incubated at 37 °C with 5% CO2 in a humidified incubator.
(§2) II. Cell viability assay. Cell proliferation and cytotoxicity assays were conducted using the Cell counting kit-8 (CCK-8) on A375 and HaCaT cells. Briefly, the cells were initially seeded in 96-well plates at a density of 4 × 10^4 cells per well and incubated for 24 h at 37 °C with 5% CO2 in a humidified incubator. Each treatment was performed in six duplicate wells. The tested compounds were added at various concentrations, and the cells were then incubated for 72 h. Following the incubation period, CCK-8 solution (Dojindo Laboratories, Kumamoto, Japan) was added to each well, and the plates were further incubated for 2 h. The absorbance of each well at 450 nm was measured using an absorbance microplate reader (BioTek ELx800, Winooski, VT, USA). The assay included negative controls in which cells were treated with ultrapure water and positive controls in which cells were treated with 10 µg·mL^−1 taxol. The percentage of cell growth inhibition was calculated using the following Equation (3). (3) Cell growth inhibition rate [%]=B1−B2/B1−B3×100 where B1 represents the absorbance of a mixture containing cells, medium, and CCK-8 solution, B2 represents the absorbance of a mixture containing cells, medium, CCK-8 solution, and the test compound; and B3 represents a mixture containing medium and CCK-8 solution.

The target of series [6] is T1, Mushroom tyrosinase (mTyr). Particulars: substrate L-tyrosine; previous experiments; Liu et al., 2023; read-out: IC50, monophenolase activity of mTyr; cited from earlier work.
Series [7] relates to Human melanoma A375 tumor cells. Nature of the series: CCK-8 cell proliferation and cytotoxicity assay, A375. In kind it is cell-based. Here is the method: as §1, §2

Take `O=C(C=Cc1ccc(O)c(O)c1)OCC1OC(Oc2ccc(O)cc2)C(O)C(O)C1O` (stereo not shown) [6′-O-caffeoylarbutin]: in series [1], the “oxidation products of L-DOPA (HPLC)” value is listed as “significantly decrease”. In series [2] (Lineweaver-Burk, substrate L-DOPA), the “inhibition type on mTyr” value is “competitive inhibition”. The Ki in series [2] (binding to free enzyme, substrate L-DOPA, read-out: inhibition constant (Ki) on mTyr) came to 1340 ± 920 nM. Further, in series [2] (rate vs enzyme concentration, 10-100 μM inhibitor, L-DOPA 0.5 mmol·L^−1), the “reversibility of mTyr inhibition” value is given as “reversible”. The “inhibitory effect on melanin production relative to beta-arbutin” value in series [3] is listed as “approximately two-fold higher; also recorded: approximately twice as potent as that of beta-arbutin”. Besides, the “toxicity level relative to beta-arbutin” value in series [3] is reported as “around half that of beta-arbutin”. Besides, the “formation of browning compounds in apple juice” value in series [4] was “significant reduction in the formation of browning compounds in a dose-dependent manner”. Further, the inhibition rate result in series [5] (3.125–100 μg∙mL^−1, 72 h) is given as “below 3%”; in series [7] (3.125–100 μg∙mL^−1, 72 h), “below 5%”. The inhibition at 200 µg/mL is 3.6% in series [5] (Homo sapiens, 200 μg∙mL^−1, 72 h, read-out: inhibition rate) and 20% in series [7] (Homo sapiens, A-375, 200 μg∙mL^−1, 72 h, read-out: inhibition rate). In addition, the inhibition at 400 µg/mL in series [5] (Homo sapiens, 400 μg∙mL^−1, 72 h, read-out: inhibition rate) was found to be 14.5%; in series [7] (Homo sapiens, A-375, 400 μg∙mL^−1, 72 h, read-out: inhibition rate), 67.8%. Besides, the IC50 was > 400 µg/mL in series [5] (Homo sapiens, 72 h, CCK-8); 1110 nM and 1100 nM in series [6]; 313 µg/mL (≈ 721 µM) in series [7] (Homo sapiens, A-375, 72 h, CCK-8).

One may read the Ki as a measure of affinity in units of concentration, obtained from inhibition or displacement. The term inhibition denotes the relative decrease from the control value, in per cent. As usually defined, the IC50 is the point on the concentration scale where inhibition reaches its midpoint.
